We go through 31 molecules from patent US20160145257A1, “SUBSTITUTED XANTHINES AND METHODS OF USE THEREOF” (Hydra Biosciences, Inc., priority 2013, published 2016).

A value given as a limit tells only on which side of the number the result lay.

The assay concerns the target T1, hTRPC5 (Homo sapiens, UniProt Q9UL62).
T1 construct: expressed in transfected cells; host or cells: HEK293 TREx cells with inducible TRPC5 expression
T1 sequence (Q9UL62 1-973): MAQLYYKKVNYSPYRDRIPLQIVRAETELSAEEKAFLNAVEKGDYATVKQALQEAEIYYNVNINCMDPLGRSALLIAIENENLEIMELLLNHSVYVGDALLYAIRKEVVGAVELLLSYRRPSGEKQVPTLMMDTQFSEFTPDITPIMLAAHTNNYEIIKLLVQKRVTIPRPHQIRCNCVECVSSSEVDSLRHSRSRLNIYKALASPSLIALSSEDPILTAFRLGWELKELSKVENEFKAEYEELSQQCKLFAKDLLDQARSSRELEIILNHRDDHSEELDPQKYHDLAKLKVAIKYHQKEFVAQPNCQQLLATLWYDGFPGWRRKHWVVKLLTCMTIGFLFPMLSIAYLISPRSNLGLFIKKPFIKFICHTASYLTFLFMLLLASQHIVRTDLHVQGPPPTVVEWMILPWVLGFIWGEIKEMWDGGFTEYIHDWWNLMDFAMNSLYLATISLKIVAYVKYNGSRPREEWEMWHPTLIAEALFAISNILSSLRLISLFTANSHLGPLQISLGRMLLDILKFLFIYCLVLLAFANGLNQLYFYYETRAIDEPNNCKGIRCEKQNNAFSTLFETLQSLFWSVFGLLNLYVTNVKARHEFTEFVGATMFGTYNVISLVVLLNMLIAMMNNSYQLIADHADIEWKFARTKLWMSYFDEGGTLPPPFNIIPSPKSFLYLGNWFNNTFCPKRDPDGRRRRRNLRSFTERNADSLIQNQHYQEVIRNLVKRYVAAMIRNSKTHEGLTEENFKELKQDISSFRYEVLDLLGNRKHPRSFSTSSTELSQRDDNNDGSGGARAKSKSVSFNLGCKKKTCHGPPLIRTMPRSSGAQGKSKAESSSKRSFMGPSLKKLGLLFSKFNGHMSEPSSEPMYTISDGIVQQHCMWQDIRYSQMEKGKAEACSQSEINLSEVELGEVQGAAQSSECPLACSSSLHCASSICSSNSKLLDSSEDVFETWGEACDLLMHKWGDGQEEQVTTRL
Description: Whole-cell patch clamp, block of LaCl3-activated TRPC5 inward current. As to conditions: TRPC5-expressing HEK293 TREx cells, 80 μM LaCl3, inward current, IC50 estimated from 5 μM and 500 nM, read-out: hTRPC5 Patch La3+ Inwd (nM) (All Batches). Format: cell-based. The method, then:
In certain embodiments, exemplary compounds of Formula I and Formula II include the compounds described in Table 1 and in the Examples. A compound described herein may be tested for its ability to block both inward and outward currents through the TRPC5 channel, e.g., by an assay as described in Example 1. For example, IC50 of a compound of Formula I or Formula II was estimated by testing the compound at 5 μM and 500 nM. […] IC50 for a compound of Formula I or Formula II between 500 nM and 5 μM was similarly estimated. As shown, “A” refers to an IC50<100 nM. “B” refers to an IC50 between 100 nM and 500 nM. “C” refers to an IC50 between 500 nM and 1000 nM. “D” refers to an IC50 between 1 μM and 2 μM. “E” refers to an IC50 between 2 μM and 10 μM. “F” refers to […]. “ND” refers to compounds wherein the IC50 was not determined.
Patch clamp experiments permit the detection of currents through the TRPC5 channel in the cell line described above. In normal whole-cell patch clamp recordings, a glass electrode is brought into contact with a single cell and a high-resistance (gigaohm) seal is established with the cell membrane. The membrane is then ruptured to achieve the whole-cell configuration, permitting control of the voltage of the cell membrane and measurement of currents flowing across the membrane using the amplifier attached to the electrode and resulting in the replacement of cytoplasm with the pipette solution. A perfusion system permits control of the extracellular solution, including the addition of blockers and activators of the current. The current can be activated by including 1.4 μM free Ca^2+ in the pipette (intracellular) solution, and 80 μM LaCl3 in the extracellular solution.
TRPC5 cells were induced 20-48 hours, removed from growth plates, and replated at low density (to attain good single-cell physical separation) on glass coverslips for measurement. In some cases, cells were grown in low density overnight on glass coverslips. Patch clamp recordings were made in the whole-cell mode with a holding potential of −40 mV. Every 5 seconds, a voltage ramp was applied from −120 to +100 mV, 400 ms in duration. Currents elicited were quantified at −80 mV and +80 mV. The internal solution consisted of 140 mM cesium aspartate, 10 mM HEDTA, 2 mM CaCl2, 2.27 mM MgCl2 and 10 mM HEPES, pH 7.2, with 1,400 nM calculated free Ca^2+. The external solution consisted of 150 mM NaCl, 4.5 mM KCl, 1 mM MgCl2, 2 mM CaCl2, 10 mM HEPES, 10 mM glucose, 1 mM EGTA, pH 7.4. Upon addition of LaCl3, TRPC5 current was induced only in TRPC5-expressing cells and not in parental HEK293 TREx cells. Removal of the LaCl3 stimulus causes most of the current to go away. Potential blockers were tested for ability to block both inward and outward currents in the continued presence of LaCl3.
IC50 of a compound of Formula I or Formula II was estimated by testing the compound at 5 μM and 500 nM. […] IC50 for a compound of Formula I or Formula II between 500 nM and 5 μM was similarly estimated.
For `CCOC(=O)CCC(C)(C)c1nc2c(c(=O)n(C)c(=O)n2C)n1Cc1cccc(Br)c1` [Compound 84], the IC50 is 1000 to 2000 nM.
Next, `CCOC(=O)CC(C)c1nc2c(c(=O)n(C)c(=O)n2C)n1Cc1cccc(Br)c1` (stereo not shown) [Compound 86]: 100 to 500 nM; `CCOC(=O)C(C)Cc1nc2c(c(=O)n(C)c(=O)n2C)n1Cc1cccc(Br)c1` (stereo not shown) [Compound 87]: 500 to 1000 nM; `CCCOCCc1nc2c(c(=O)n(C)c(=O)n2C)n1Cc1cccc(OC(F)(F)F)c1` [Compound 88]: 500 to 1000 nM.
For the molecule `CCCOCCc1nc2c(c(=O)n(C)c(=O)n2C)n1Cc1ccc(OC)cc1` [Compound 89], the IC50 is 2000 to 10000 nM.
On to `CCCOCCc1nc2c(c(=O)n(C)c(=O)n2C)n1Cc1cccc(C)c1` [Compound 90], for which the IC50 was 1000 to 2000 nM.
In the case of `CCCOCCc1nc2c(c(=O)n(C)c(=O)n2C)n1Cc1cccc(OC)c1` [Compound 91] it was 2000 to 10000 nM.
In the case of `CCCOCCc1nc2c(c(=O)n(C)c(=O)n2C)n1Cc1cccc(F)c1` [Compound 92] it was 2000 to 10000 nM; in that of `CCCOCCc1nc2c(c(=O)n(C)c(=O)n2C)n1Cc1ccc(Cl)cc1` [Compound 93], 500 to 1000 nM; in that of `CCCOCCc1nc2c(c(=O)n(C)c(=O)n2C)n1Cc1ccc(C)cc1` [Compound 94, 1,3-dimethyl-7-(4-methylbenzyl)-8-(2-propoxyethyl)-1H-purine-2,6(3H,7H)-dione], 2000 to 10000 nM.
Next, `CCCOCCc1nc2c(c(=O)n(C)c(=O)n2C)n1Cc1ccc(Br)cc1` [Compound 95, 7-(4-bromobenzyl)-1,3-dimethyl-8-(2-propoxyethyl)-1H-purine-2,6(3H,7H)-dione]: 1000 to 2000 nM; `CCOC(=O)CC(C)(C)c1nc2c(c(=O)n(C)c(=O)n2C)n1Cc1cccc(Br)c1` [Compound 96, Ethyl 3-(7-(3-bromobenzyl)-1,3-dimethyl-2,6-dioxo-2,3,6,7-tetrahydro-1H-purin-8-yl)-3-methylbutanoate]: 500 to 1000 nM.
Consider `CCOC(=O)C(C)(C)Cc1nc2c(c(=O)n(C)c(=O)n2C)n1Cc1cccc(Br)c1` [Compound 97, Ethyl 3-(7-(3-bromobenzyl)-1,3-dimethyl-2,6-dioxo-2,3,6,7-tetrahydro-1H-purin-8-yl)-2-2-dimethylpropanoate], for which the IC50 was 100 to 500 nM.
In the case of `CCCCC(O)c1nc2c(c(=O)n(C)c(=O)n2C)n1Cc1cccc(Br)c1` (stereo not shown) [Compound 98] it was 2000 to 10000 nM.
In the case of `CCCOCCOc1nc2c(c(=O)n(C)c(=O)n2C)n1Cc1cccc(Br)c1` [Compound 99, 7-(3-bromobenzyl)-1,3-dimethyl-8-(2-propoxyethoxy)-1H-purine-2,6(3H,7H)-dione] it was 100 to 500 nM; in that of `CCc1coc(C(C)(C)Sc2nc3c(c(=O)n(C)c(=O)n3C)n2Cc2cccc(Br)c2)n1` [Compound 100, 7-(3-bromobenzyl)-8-(2-(4-ethyloxazol-2-yl)propan-2-ylthio)-1,3-dimethyl-1H-purine-2,6(3H,7H)-dione], 100 to 500 nM; in that of `Cn1c(=O)c2c(nc(Cc3cccc(C#N)c3)n2Cc2cccc(Br)c2)n(C)c1=O` [Compound 101], 2000 to 10000 nM.
For `CCOC(=O)c1cccc(Cc2nc3c(c(=O)n(C)c(=O)n3C)n2Cc2cccc(Br)c2)c1` [Compound 102, ethyl 3-((7-(3-bromobenzyl)-1,3-dimethyl-2,6-dioxo-2,3,6,7-tetrahydro-1H-purin-8-yl)methyl)benzoate], the IC50 was 1000 to 2000 nM.
In the case of `Cc1coc(-c2cccc(Oc3nc4c(c(=O)n(C)c(=O)n4C)n3Cc3cccc(Br)c3)c2)n1` [Compound 103, 7-(3-bromobenzyl)-1,3-dimethyl-8-(3-(4-methyloxazol-2-yl)phenoxy)-1H-purine-2,6(3H,7H)-dione] it was 2000 to 10000 nM; in that of `Cc1coc(-c2cccc(Cc3nc4c(c(=O)n(C)c(=O)n4C)n3Cc3cccc(Br)c3)c2)n1` [Compound 104], 2000 to 10000 nM; in that of `CCCCC(=O)c1nc2c(c(=O)n(C)c(=O)n2C)n1Cc1cccc(Br)c1` [Compound 105, 7-(3-bromobenzyl)-1,3-dimethyl-8-pentanoyl-1H-purine-2,6(3H,7H)-dione], < 100 nM.
Next, `CCc1coc(CSc2nc3c(c(=O)n(C)c(=O)n3C)n2Cc2cccc(OC(F)(F)F)c2)n1` [Compound 106, 8-((4-ethyloxazol-2-yl)methylthio)-1,3-dimethyl-7-(3-(trifluoromethoxy)benzyl)-1H-purine-2,6(3H,7H)-dione]: 100 to 500 nM; `CCCOCCc1nc2c(c(=O)n(C)c(=O)n2C)n1Cc1cccc(Cl)c1` [Compound 107]: 500 to 1000 nM.
In the case of `CCCOCCc1nc2c(c(=O)n(C)c(=O)n2C)n1Cc1ccc(F)cc1` [Compound 108] it was 2000 to 10000 nM; in that of `CCCOCCc1nc2c(c(=O)n(C)c(=O)n2C)n1Cc1ccc(OC(F)(F)F)cc1` [Compound 109], 1000 to 2000 nM.
As to `Cn1c(=O)c2c(nc(Oc3cccc(Cl)c3)n2Cc2cccc(Br)c2)n(C)c1=O` [Compound 110, 7-(3-bromobenzyl)-8-(3-chlorophenoxy)-1,3-dimethyl-1H-purine-2,6(3H,7H)-dione], the IC50 was 100 to 500 nM.
As for `Cn1c(=O)c2c(nc(Oc3cccc(F)c3)n2Cc2cccc(Br)c2)n(C)c1=O` [Compound 111, 7-(3-bromobenzyl)-8-(3-fluorophenoxy)-1,3-dimethyl-1H-purine-2,6(3H,7H)-dione], the IC50 was 1000 to 2000 nM.
Next, `Cn1c(=O)c2c(nc(Oc3cccc(C#N)c3)n2Cc2cccc(Br)c2)n(C)c1=O` [Compound 112, 3-(7-(3-bromobenzyl)-1,3-dimethyl-2,6-dioxo-2,3,6,7-tetrahydro-1H-purin-8-yloxy)benzonitrile]: 2000 to 10000 nM.
On to `CCCc1cccc(Oc2nc3c(c(=O)n(C)c(=O)n3C)n2Cc2cccc(Br)c2)c1` [Compound 113, 7-(3-bromobenzyl)-1,3-dimethyl-8-(3-propylphenoxy)-1H-purine-2,6(3H,7H)-dione], for which the IC50 was < 100 nM.
Take `CC(=O)c1cccc(Oc2nc3c(c(=O)n(C)c(=O)n3C)n2Cc2cccc(Br)c2)c1` [Compound 114, 8-(3-acetylphenoxy)-7-(3-bromobenzyl)-1,3-dimethyl-1H-purine-2,6(3H,7H)-dione]: the IC50 is 1000 to 2000 nM.
On to `Cn1c(=O)c2c(nc(Oc3cccc(OC(F)(F)F)c3)n2Cc2cccc(Br)c2)n(C)c1=O` [Compound 115, 7-(3-bromobenzyl)-1,3-dimethyl-8-(3-(trifluoromethoxy)phenoxy)-1H-purine-2,6(3H,7H)-dione], for which the IC50 was < 100 nM.
